Reference: the supplement of paper PMC5579334
± gives the standard deviation of the averaged measurements.

Key:
[1] = tested on: HSC1 (primary human Schwann cells); experiment: drug sensitivity score (DSS, CellTiter-Glo viability, 72 h) (DSS (dimensionless)); higher = more sensitive; extreme values may be limits of the assay
Method in brief: (§1)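 After seeding 750–1000 cells per well of MPNST cell lines or primary human Schwann cells into 384-well plates preprinted with each compound at five concentrations in 10-fold steps, plates were kept 72 h at 37 °C, 5% CO2. Viability was read as CellTiter-Glo ATP luminescence relative to vehicle and positive-control wells, with duplicates averaged where present. The data were fitted with four-parameter logistic models. Drug sensitivity score and relative IC50, censored at the top concentration, derive from the fits, and percent inhibition refers to the top concentration.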

[2] = tested on: HS-Sch-2; experiment: as above
Method in brief: as §1

[3] = tested on: HSC2 (primary human Schwann cells); experiment: as above
Method in brief: as §1

[4] = tested on: HS-PSS; experiment: as above
Method in brief: as §1

[5] = tested on: STS26T; experiment: as above
Method in brief: as §1

[6] = tested on: S1507-2; experiment: as above
Method in brief: as §1

[7] = tested on: S462; experiment: as above
Method in brief: as §1

[8] = tested on: ST8814; experiment: as above
Method in brief: as §1

[9] = tested on: YST-1; experiment: as above
Method in brief: as §1

[10] = tested on: HSC1 (primary human Schwann cells); experiment: % inhibition of CellTiter-Glo viability at highest tested concentration (72 h), relative to DMSO and benzethonium chloride controls; higher = more inhibition
Method in brief: as §1

[11] = tested on: HS-Sch-2; experiment: as above
Method in brief: as §1

[12] = tested on: HSC2 (primary human Schwann cells); experiment: as above
Method in brief: as §1

[13] = tested on: HS-PSS; experiment: as above
Method in brief: as §1

[14] = tested on: STS26T; experiment: as above
Method in brief: as §1

[15] = tested on: S1507-2; experiment: as above
Method in brief: as §1

[16] = tested on: S462; experiment: as above
Method in brief: as §1

[17] = tested on: ST8814; experiment: as above
Method in brief: as §1

[18] = tested on: YST-1; experiment: as above
Method in brief: as §1

[19] = tested on: HSC1 (primary human Schwann cells); experiment: drug sensitivity score (DSS, CellTox-Green cytotoxicity, 72 h) (DSS (dimensionless)); higher = more cytotoxic; extreme values may be limits of the assay
Method in brief: (§2)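 For 72 h at 37 °C, MPNST cell lines and primary human Schwann cells were exposed in 384-well plates to five 10-fold compound dilutions. CellTox-Green, added before seeding at a final 1:1000 dilution, gave fluorescence from DNA released by disrupted cells. Signals were scaled to vehicle and positive-control wells, cultures failing plate quality control were left out, and four-parameter logistic fits were applied. Relative IC50 and drug sensitivity score were derived from the fits, with IC50 censored at the top concentration.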

[20] = tested on: HSC2 (primary human Schwann cells); experiment: as above
Method in brief: as §2

[21] = tested on: HS-PSS; experiment: as above
Method in brief: as §2

[22] = tested on: STS26T; experiment: as above
Method in brief: as §2

[23] = tested on: S1507-2; experiment: as above
Method in brief: as §2

[24] = tested on: ST8814; experiment: as above
Method in brief: as §2

SMILES	drug sensitivity score [1]	drug sensitivity score [2]	drug sensitivity score [3]	drug sensitivity score [4]	drug sensitivity score [5]	drug sensitivity score [6]	drug sensitivity score [7]	drug sensitivity score [8]	drug sensitivity score [9]	% inhibition [10] [%]	% inhibition [11] [%]	% inhibition [12] [%]	% inhibition [13] [%]	% inhibition [14] [%]	% inhibition [15] [%]	% inhibition [16] [%]	% inhibition [17] [%]	% inhibition [18] [%]	drug sensitivity score [19]	drug sensitivity score [20]	drug sensitivity score [21]	drug sensitivity score [22]	drug sensitivity score [23]	drug sensitivity score [24]
COc1cc2nccc(Oc3ccc(NC(=O)C4(C(=O)Nc5ccc(F)cc5)CC4)cc3)c2cc1OC [Cabozantinib] (max concentration tested 1000 nM)	0.225	0.13	0	1.89	0.238	4.78 ± 0.14	0.552 ± 0.78	2.2	0	13.2	10.9	8.9	23	13.4	27.7 ± 7.5	14 ± 4.9	21.3	0.14	0	0	0	0	0	0
C=CC(=O)Nc1cc2c(Nc3ccc(F)c(Cl)c3)ncnc2cc1OCCCN1CCOCC1 [Canertinib] (max concentration tested 10000 nM)	8.87	6.37	7.63	6.16	7.19	7.98 ± 0.98	6.03 ± 1	8.06	5.36	96.6	94.2	96.2	88.7	96.5	87.9 ± 0.97	96.1 ± 0.97	96.3	96.3	7.58	8	3.38	4.76	5.1 ± 0.58	4.72
CCCCCOC(=O)Nc1nc(=O)n([C@@H]2O[C@H](C)[C@@H](O)[C@H]2O)cc1F [Capecitabine] (max concentration tested 10000 nM)	0	0	0	0	0.0023	0	0	0	0	1.09	-4.92	-3.4	-4.86	12	5.66 ± 1.9	-4.78 ± 2.1	-8.14	-6.84	0	0	0	0	0	0
CC(C)C[C@H](NC(=O)[C@H](CCc1ccccc1)NC(=O)CN1CCOCC1)C(=O)N[C@@H](Cc1ccccc1)C(=O)N[C@@H](CC(C)C)C(=O)[C@@]1(C)CO1 [Carfilzomib] (max concentration tested 1000 nM)	23	31.2	24.4	23.3	24.9	21.7 ± 1.4	29 ± 2	24.8	28.1	103	102	101	99.9	103	102.9 ± 0.73	104 ± 1.3	102	101	19.3	19.7	17.5	21.5	21.4 ± 2.3	21.7
O=NN(CCCl)C(=O)NCCCl [Carmustine] (max concentration tested 10000 nM)	0	0	0	0.02	0	0	0	0	0	0.41	2.86	-7.14	10.6	-1.28	-5.49 ± 3.8	-7.97 ± 1.3	-3.77	1.73	0	0	0	0	0.439 ± 0.62	0
COc1cc2c(Oc3ccc4[nH]c(C)cc4c3F)ncnc2cc1OCCCN1CCCC1 [Cediranib] (max concentration tested 1000 nM)	0.0876	0	0	1.71	0	0.908 ± 0.43	0	0	0	12.1	1.32	-10.7	20.1	4.34	19.9 ± 0.91	-3.01 ± 12	8.47	-10.3	0	0.638	0	0	0.112 ± 0.16	0.0254
Cc1ccc(-c2cc(C(F)(F)F)nn2-c2ccc(S(N)(=O)=O)cc2)cc1 [Celecoxib] (max concentration tested 10000 nM)	0.156	0	0	0	0	0	0	0	0	11.3	-1.87	3.55	-9.36	-2	-6.68 ± 15	0.832 ± 4.7	-6.53	4.7	0	0	0	0	0	0
